Organism: Rattus norvegicus
Test: Open TG-GATES - Regimen: Single
Assay type: toxicity, organism-based, Sprague-Dawley
Set-up: regimen Single, gender Male, age 6 weeks
Conditions: in vivo, po, 300 mg/kg, route gavage, dose level Middle; for APTT / Bas / Eos / Fbg / Hb / Ht / Lym / MCH / MCHC / MCV / Mono / Neu / PT / Plat / RBC / Ret / WBC: tissue Blood; for KIDNEY_L / KIDNEY_R / KIDNEY_TOTAL: tissue Kidney; for LIVER: tissue Liver; for A/G / ALP / ALT / AST / BUN / CRE / Ca / Cl / DBIL / GLC / IP / K / LDH / Na / PL / RALB / TBIL / TC / TG / TP / gamma-GTP: tissue Plasma

Compound `CCc1cc(C(N)=S)ccn1` [ETHIONAMIDE] has a TERMINAL_BW (3 h) of 230.2 g, an APTT (3 h) of 17.6 s and a Bas (3 h) of 0%. It also gave an Eos (3 h) of 1%, a Fbg (3 h) of 208.2 mg/dL and a Hb (3 h) of 13.7 g/dL. For the same compound, the Ht (3 h) was 40.6%, the Lym (3 h) was 79.4% and the MCH (3 h) was 21.7 pg. For the same compound, the MCHC (3 h) was 33.7%, the MCV (3 h) was 64.3 fL and the Mono (3 h) was 4.8%. The Neu (3 h) was 15.4%, the PT (3 h) was 12.5 s and the Plat (3 h) was 121.1 x10_4/uL. The RBC (3 h) was 631.4 x10_4/ul, the Ret (3 h) was 7.4% and the WBC (3 h) was 69.7 x10_2/uL. The KIDNEY_L (3 h) was 1 g, the KIDNEY_R (3 h) was 1.1 g and the KIDNEY_TOTAL (3 h) was 2.1 g. It also gave an LIVER (3 h) of 11.4 g, an A/G (3 h) of 1.8 and an ALP (3 h) of 771 IU/L. The ALT (3 h) was 30.2 IU/L, the AST (3 h) was 62.8 IU/L and the BUN (3 h) was 15.6 mg/dL. For the same compound, the CRE (3 h) was 0.6 mg/dL, the Ca (3 h) was 10.8 mg/dL and the Cl (3 h) was 102 meq/L. The DBIL (3 h) was 0.016 mg/dL, the GLC (3 h) was 200 mg/dL and the IP (3 h) was 9.6 mg/dL. It also gave a K (3 h) of 4.2 meq/L, an LDH (3 h) of 102.4 IU/L and a Na (3 h) of 141.2 meq/L. The PL (3 h) was 126.2 mg/dL, the RALB (3 h) was 3.5 g/dL and the TBIL (3 h) was 0.4 mg/dL. It also gave a TC (3 h) of 70.4 mg/dL, a TG (3 h) of 63 mg/dL and a TP (3 h) of 5.5 g/dL. For the same compound, the gamma-GTP (3 h) was 1.4 IU/L, the TERMINAL_BW (6 h) was 225.7 g and the APTT (6 h) was 18.3 s. The Bas (6 h) was 0%, the Eos (6 h) was 0.8% and the Fbg (6 h) was 203 mg/dL. It also gave a Hb (6 h) of 14.5 g/dL, a Ht (6 h) of 43.1% and a Lym (6 h) of 80.6%. It also gave an MCH (6 h) of 21.8 pg, an MCHC (6 h) of 33.6% and an MCV (6 h) of 64.7 fL. For the same compound, the Mono (6 h) was 6.4%, the Neu (6 h) was 12.4% and the PT (6 h) was 13.5 s. It also gave a Plat (6 h) of 124 x10_4/uL, an RBC (6 h) of 667 x10_4/ul and a Ret (6 h) of 7.8%. It also gave a WBC (6 h) of 112.6 x10_2/uL, a KIDNEY_L (6 h) of 1 g and a KIDNEY_R (6 h) of 1 g. It also gave a KIDNEY_TOTAL (6 h) of 2 g, an LIVER (6 h) of 10.7 g and an A/G (6 h) of 2. For the same compound, the ALP (6 h) was 845.6 IU/L, the ALT (6 h) was 32.8 IU/L and the AST (6 h) was 73.2 IU/L. It also gave a BUN (6 h) of 18.4 mg/dL, a CRE (6 h) of 0.5 mg/dL and a Ca (6 h) of 11.3 mg/dL. For the same compound, the Cl (6 h) was 104.2 meq/L, the DBIL (6 h) was 0.008 mg/dL and the GLC (6 h) was 188.6 mg/dL. For the same compound, the IP (6 h) was 9.8 mg/dL, the K (6 h) was 4.3 meq/L and the LDH (6 h) was 135.2 IU/L. The Na (6 h) was 140 meq/L, the PL (6 h) was 122.8 mg/dL and the RALB (6 h) was 3.7 g/dL. The TBIL (6 h) was 0.5 mg/dL, the TC (6 h) was 66 mg/dL and the TG (6 h) was 34.2 mg/dL. For the same compound, the TP (6 h) was 5.6 g/dL, the gamma-GTP (6 h) was 1 IU/L and the TERMINAL_BW (9 h) was 224 g. It also gave an APTT (9 h) of 18.1 s, a Bas (9 h) of 0% and an Eos (9 h) of 1.4%. For the same compound, the Fbg (9 h) was 208.6 mg/dL, the Hb (9 h) was 14.2 g/dL and the Ht (9 h) was 42.3%. For the same compound, the Lym (9 h) was 68.8%, the MCH (9 h) was 21.2 pg and the MCHC (9 h) was 33.7%. It also gave an MCV (9 h) of 63.1 fL, a Mono (9 h) of 8.4% and a Neu (9 h) of 21.4%. For the same compound, the PT (9 h) was 14.4 s, the Plat (9 h) was 119.7 x10_4/uL and the RBC (9 h) was 669.8 x10_4/ul. The Ret (9 h) was 7.6%, the WBC (9 h) was 69.4 x10_2/uL and the KIDNEY_L (9 h) was 1 g. For the same compound, the KIDNEY_R (9 h) was 1 g, the KIDNEY_TOTAL (9 h) was 1.9 g and the LIVER (9 h) was 10.1 g. For the same compound, the A/G (9 h) was 2, the ALP (9 h) was 660.4 IU/L and the ALT (9 h) was 31 IU/L. It also gave an AST (9 h) of 72 IU/L, a BUN (9 h) of 15.6 mg/dL and a CRE (9 h) of 0.5 mg/dL. It also gave a Ca (9 h) of 10.7 mg/dL, a Cl (9 h) of 106 meq/L and a DBIL (9 h) of 0.01 mg/dL. It also gave a GLC (9 h) of 195.2 mg/dL, an IP (9 h) of 10.3 mg/dL and a K (9 h) of 4.2 meq/L. The LDH (9 h) was 86.2 IU/L, the Na (9 h) was 143 meq/L and the PL (9 h) was 106.6 mg/dL. It also gave an RALB (9 h) of 3.6 g/dL, a TBIL (9 h) of 0.4 mg/dL and a TC (9 h) of 57.2 mg/dL. The TG (9 h) was 19.8 mg/dL, the TP (9 h) was 5.5 g/dL and the gamma-GTP (9 h) was 0.8 IU/L. The TERMINAL_BW (24 h) was 231.6 g, the APTT (24 h) was 17.5 s and the Bas (24 h) was 0%. For the same compound, the Eos (24 h) was 1%, the Fbg (24 h) was 194.8 mg/dL and the Hb (24 h) was 14.2 g/dL. The Ht (24 h) was 42%, the Lym (24 h) was 66.2% and the MCH (24 h) was 21.7 pg. The MCHC (24 h) was 33.7%, the MCV (24 h) was 64.3 fL and the Mono (24 h) was 10%. It also gave a Neu (24 h) of 23.2%, a PT (24 h) of 13.6 s and a Plat (24 h) of 112.3 x10_4/uL. It also gave an RBC (24 h) of 653.6 x10_4/ul, a Ret (24 h) of 7.7% and a WBC (24 h) of 95 x10_2/uL. It also gave a KIDNEY_L (24 h) of 1.1 g, a KIDNEY_R (24 h) of 1.1 g and a KIDNEY_TOTAL (24 h) of 2.2 g. It also gave an LIVER (24 h) of 11.3 g, an A/G (24 h) of 1.9 and an ALP (24 h) of 1035.2 IU/L. The ALT (24 h) was 50.4 IU/L, the AST (24 h) was 81.6 IU/L and the BUN (24 h) was 15 mg/dL. For the same compound, the CRE (24 h) was 0.6 mg/dL, the Ca (24 h) was 10.6 mg/dL and the Cl (24 h) was 104.6 meq/L. It also gave a DBIL (24 h) of 0.028 mg/dL, a GLC (24 h) of 190.8 mg/dL and an IP (24 h) of 7.9 mg/dL. It also gave a K (24 h) of 4.5 meq/L, an LDH (24 h) of 106.2 IU/L and a Na (24 h) of 141 meq/L. The PL (24 h) was 105.2 mg/dL, the RALB (24 h) was 3.4 g/dL and the TBIL (24 h) was 0.4 mg/dL. For the same compound, the TC (24 h) was 49.8 mg/dL, the TG (24 h) was 77 mg/dL and the TP (24 h) was 5.2 g/dL. The gamma-GTP (24 h) was 1.4 IU/L.
